Assay results taken from publication PMC4977052, “On the Utility of ToxCast™ and ToxPi as Methods for Identifying New Obesogens” (Environmental Health Perspectives, 2016).
Where two headings read alike, the source gives them in different places.

What was measured:
LXRβ = tested on: LXRβ; set-up: method as in Knudsen et al. 2011; settings: ToxCast Phase I 2011 release; NA = not active; ref Knudsen et al. 2011; read-out: ATGT LXRβ AC50; cited from earlier work
PPRE = tested on: PPRE; set-up: method as in Knudsen et al. 2011; settings: ToxCast Phase I 2011 release; NA = not active; ref Knudsen et al. 2011; read-out: ATGC PPRE AC50; cited from earlier work
3T3-L1 preadipocytes = test: 3T3-L1 adipogenesis assay (lipid accumulation, adipogenic gene expression); assay type: cell-based; settings: 0.02-20 μM, 5 days after MDI induction
Description: 3T3-L1 cells (ATCC) were maintained in high-glucose DMEM supplemented with 10% fetal bovine serum, 2 mM L-glutamine, 50 IU/mL penicillin, and 50 μg/mL streptomycin. A total of 2 × 10^4 cells per well were seeded in 12-well plates. After 48 hr, cells were exposed to the adipogenic cocktail MDI (500 μM isobutylmethylxanthine, 0.25 nM dexamethasone and 5 μg/mL insulin), 8 μg/mL biotin and 8 μg/mL pantothenate for 2 days. Induction media was removed and cells were exposed to test chemicals during 5 days, replacing the media every 2 days. Rosiglitazone (ROSI) and tributyltin (TBT) were used as positive controls at 100 nM and 50 nM final concentrations, respectively. All ToxCast™ chemicals were tested at 0.02, 0.2, 2, and 20 μM, and DMSO concentration was maintained at 0.1% across all treatments. If the chemical was toxic at 20 μM, we repeated the experiment at 10 μM.
Cells were either fixed in 3.7% formaldehyde in phosphate-buffered saline (PBS) for 30 min at room temperature (RT) for lipid quantitation, or homogenized in TriPure (Roche, Mannheim, Germany) for gene expression analysis. For lipid quantitation, fixed cells were washed twice with PBS and maintained in PBS overnight at 4°C to release residual phenol red. Background of cells were measured prior to staining. Cells were stained with 1 μg/mL Nile red (CAS No. 7385-67-3) (to detect lipid accumulation) and 1 μg/mL Hoechst 33342 (ThermoFisher Scientific) (to detect nuclei as a surrogate for cell number) in PBS for 15 min in the dark at RT and washed twice with PBS. […] Background values of Hoechst and Nile red were subtracted from the RFUs after staining and the ratio RFUNile Red:RFUHoechst was calculated. Data are represented as mean ± SEM. Total RNA was isolated using TriPure (Roche) as recommended by the manufacturer. Reverse transcription and quantitative real-time RT-PCR (QPCR) were performed using Transcriptor RT and SYBR® Green Master Mix (Roche). cDNA was quantitated in a LightCycler® 480 System (Roche Diagnostics, Basel, Switzerland) using primer sets listed in Table S4. Each primer set amplified a single band as determined by gel electrophoresis and melting curve analysis. QPCR data were analyzed using the 2^ΔΔCt method ([Livak and Schmittgen 2001]) relative to ribosomal protein 36b4, normalizing to 0.1% DMSO vehicle. Error bars represent the SEM from four to six biological replicates calculated using standard propagation of error ([Bevington and Robinson 2003]).

GAL4-mPPARγ [1] = target: T1, GAL4-mPPARγ (Mus musculus, UniProt P37238); test: GAL4-mPPARγ activation, transient transfection luciferase reporter in COS7 cells; assay type: cell-based; settings: for Activation of GAL4-PPARγ (text): COS7, 100 μM through 0.137 μM
T1 construct: expressed in transfected cells; host or cells: COS7
Description: (§1) pCMX-Gal4, pCMX-Gal4-mPPARγ, and pCMX-Gal4-hRXRα were previously described ([Grün et al. 2006]). Transient transfections were performed in COS7 cells as described ([Chamorro-García et al. 2012]). Briefly, COS7 cells were seeded at 15,000 cells per well in 96-well tissue culture plates in 10% calf bovine serum. The following day, cells were transfected in Opti-MEM at ~ 90% confluency. One microgram of CMX-GAL4 effector plasmid was co-transfected with 5 μg tk-(MH100)4-luciferase reporter and 5 μg of CMX-β-galactosidase transfection control plasmids in Opti-MEM® using Lipofectamine® 2000 reagent (Invitrogen™ Life Technologies, Carlsbad, CA, USA), following the manufacturer’s recommended protocol. All chemicals were solvated in dimethyl sulfoxide (DMSO). After overnight incubation, the medium was replaced with Dulbecco’s Modified Eagle Medium (DMEM; HyClone, Logan, UT, USA), 10% resin charcoal stripped fetal bovine serum (FBS) plus ligands at concentrations indicated in the figure legends for an additional 24 hr. DMSO concentration was maintained at 0.05% across all chemical treatments. Cells were lysed and assayed for luciferase and β-galactosidase activity as previously described ([Forman et al. 1995]). All transfections were performed in triplicate and reproduced in multiple experiments. Data are reported as fold induction or reduction over vehicle ([…]) controls ± SEM (standard error of the mean) using standard propagation of error ([Bevington and Robinson 2003]). […] The EC50, EC10, IC50, and IC10 values from NCGC and ToxCast™ are reported from gain AC50 and AC10 values in the ToxCast™ 2014 release ([Filer et al. 2014]).
(§2) Figure 1 ToxCast™ Chemical Activity on PPARγ. The ability of a graded dose series of ToxCast™ chemicals to (A) activate or (B) antagonize GAL4-mPPARγ was tested in transiently transfected COS7 cells. (A, B) Data points are averages of triplicate transfections (three biological replicates). […] Data are depicted as (A) fold induction or (B) reduction over vehicle (0.05% DMSO) controls ± SEM. (A) ToxCast™ chemicals were tested in 3-fold serial dilutions from 100 μM through 0.137 μM, with the final data point being 0.05% DMSO. Rosiglitazone serves as a positive control activator. (B) ToxCast™ chemicals were tested in 3-fold serial dilutions from 100 μM, in competition with 50 nM rosiglitazone (Rosi). […] (C) EC50, EC10, IC50, and IC10 values calculated from A and B are reported and compared to commercial assays (see Figure S1). Note: ATG, Attagene GAL-PPARγ activation assay; NCGC, GeneBLAzer® agonist (EC values) or antagonist (IC values) assays. Triphenyltin was previously published ([Kanayama et al. 2005]).
(§3) Figure 4 ToxPi Chemical Activity on PPARγ and RXRα. The ability of a graded dose series of ToxPi chemicals to activate (A) GAL4-mPPARγ or (B) GAL4-hRXRα was tested in transiently transfected COS7 cells. (A, B) Data points are averages of triplicate transfections (three biological replicates). […] ToxPi chemicals were tested in 3-fold serial dilutions from 100 μM through 0.137 μM, with the final data point being 0.05% DMSO. Data are depicted as fold induction over vehicle (0.05% DMSO) controls ± SEM. (A) Rosiglitazone serves as a positive control activator for GAL4-mPPARγ. (B) LG100268 (2-[1-(3,5,5,8,8-Pentamethyl-5,6,7,8-tetrahydro-2-naphthyl)cyclopropyl]pyridine-5-carboxylic acid) serves as a positive control activator for GAL4-hRXRα. (C) EC50 and EC10 values calculated from A and B are reported and compared to other assays (see Figure S1). ATG, Attagene GAL-PPARγ or GAL-RXRα activation assay; NCGC, GeneBLAzer® GAL-PPARγ or GAL-RXRα activation assays. Triphenyltin was previously published ([Kanayama et al. 2005]).

PPARγ [2] = settings: cited from earlier work
C/EBP = tested on: C/EBP; set-up: method as in Knudsen et al. 2011; settings: ToxCast Phase I 2011 release; NA = not active; ref Knudsen et al. 2011; read-out: ATGC CEBP AC50; cited from earlier work
GAL4-hRXRα = target: T2, GAL4-hRXRα (Homo sapiens, UniProt P19793); test: GAL4-hRXRα activation, transient transfection luciferase reporter in COS7 cells; assay type: cell-based; settings: COS7, 100 μM through 0.137 μM
T2 construct: expressed in transfected cells; host or cells: COS7
Description: as §1, §3

Human PPARγ = settings: cited from earlier work
PPARγ [3] = settings: ToxCast 2014 release, ref Filer et al. 2014, cited from earlier work
GAL4-mPPARγ [4] = target: T1, GAL4-mPPARγ; test: GAL4-mPPARγ antagonism in competition with 50 nM rosiglitazone, transiently transfected COS7 cells; assay type: cell-based
Description: as §1, §2

PPARγ [5] = tested on: PPARγ; set-up: method as in Filer et al. 2014; settings: ref Filer et al. 2014, cited from earlier work
COS7 cells = test: Cytotoxicity in transfected COS7 cells measured as decreased β-galactosidase activity; settings: transfected COS7 cells, 24 hr
Description: as §1, §2

T1 sequence (P37238 with tags, fused parts or gaps limits assumed): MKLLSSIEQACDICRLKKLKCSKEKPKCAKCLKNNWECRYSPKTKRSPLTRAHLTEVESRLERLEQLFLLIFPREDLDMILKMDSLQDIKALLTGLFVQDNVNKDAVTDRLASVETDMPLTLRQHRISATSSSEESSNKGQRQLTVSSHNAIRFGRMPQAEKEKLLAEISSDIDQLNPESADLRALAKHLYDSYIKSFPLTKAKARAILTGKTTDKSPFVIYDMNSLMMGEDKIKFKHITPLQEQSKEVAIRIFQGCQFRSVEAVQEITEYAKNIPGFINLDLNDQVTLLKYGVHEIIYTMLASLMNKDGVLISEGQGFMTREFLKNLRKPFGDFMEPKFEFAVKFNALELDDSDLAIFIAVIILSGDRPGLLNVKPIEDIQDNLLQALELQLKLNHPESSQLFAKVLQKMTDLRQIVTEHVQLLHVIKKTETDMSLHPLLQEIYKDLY
T2 sequence (P19793 with tags, fused parts or gaps limits assumed): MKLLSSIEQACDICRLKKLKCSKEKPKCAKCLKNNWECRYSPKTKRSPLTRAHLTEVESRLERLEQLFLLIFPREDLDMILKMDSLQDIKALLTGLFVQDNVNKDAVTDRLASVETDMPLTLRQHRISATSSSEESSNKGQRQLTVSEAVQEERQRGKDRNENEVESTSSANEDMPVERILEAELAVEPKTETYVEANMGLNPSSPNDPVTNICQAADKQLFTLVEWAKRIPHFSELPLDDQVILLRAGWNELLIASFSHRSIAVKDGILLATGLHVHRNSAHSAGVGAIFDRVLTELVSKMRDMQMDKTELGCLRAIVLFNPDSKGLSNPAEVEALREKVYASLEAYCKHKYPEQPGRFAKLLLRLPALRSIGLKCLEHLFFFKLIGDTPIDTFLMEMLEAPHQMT

Structure (SMILES): O=C(Nc1ccccc1)Nc1ccnc(Cl)c1 [Forchlorfenuron]
- AC50 (LXRβ): 37 µM
- AC50 (PPRE): 26 µM
- Adipogenesis 3T3-L1 (result in words) (3T3-L1 preadipocytes): Positive
- Activation COS7 (result in words), ToxPi chemicals (GAL4-mPPARγ [1]; Cos-7 transient transfection, PPARγ or RXRα activation assays (Table 2)): Inactive
- AC50 (PPARγ [2]; ToxCast Phase I 2011 release, NA = not active, ref Knudsen et al. 2011, read-out: ATGT PPARγ AC50): 46 µM
- AC50 (C/EBP): 40 µM

Structure (SMILES): CCNc1nc(Cl)nc(NC(C)C)n1 [Atrazine]
- Activation of RXRα (GAL4-hRXRα): inactive
- Activation of GAL4-PPARγ (text) (GAL4-mPPARγ [1]): inactive
- AC50 (Human PPARγ; direct binding, ToxCast 2014 release, ref Filer et al. 2014, read-out: NovaScreen AC50 (panel A)): 0.3 µM
- AC50 (Human PPARγ; direct binding, ToxCast 2014 release, ref Filer et al. 2014, read-out: NovaScreen AC50 (panel B)): 0.3 µM
- AC50 (PPARγ [3]; read-out: Tox21/NCGC AC50 (panel A)): 0.2 µM
- AC50 (PPARγ [3]; read-out: Tox21/NCGC AC50 (panel B)): 0.2 µM
- AC50 (PPARγ [2]; ToxCast 2014 release, ref Filer et al. 2014, read-out: Attagene AC50 (panel A, w/o Z-Score Correction ranking)): 15.2 µM
- AC50 (PPARγ [2]; ToxCast 2014 release, ref Filer et al. 2014, read-out: Attagene AC50 (panel B, with Z-Score Correction ranking)): 15.2 µM

Structure (SMILES): CCc1cccc(CC)c1N(COC)C(=O)CCl [Alachlor]
- AC50 (GAL4-mPPARγ [4]; Activation AC50 (PPARγ antagonists), Cos-7 transient transfection, competition with 50 nM rosiglitazone): 4.48 µM
- Antagonism of PPARγ (GAL4-mPPARγ [4]; COS7, competition against 50 nM rosiglitazone): weak antagonists
- IC50 (GAL4-mPPARγ [4]; COS7, in competition with 50 nM rosiglitazone): 4.48 µM
- PPARγ antagonists: IC10, Fig 1B (GAL4-mPPARγ [4]; COS7, in competition with 50 nM rosiglitazone, computed from IC50): 0.78 µM
- Activation COS7 (result in words): PPARγ antagonist (GAL4-mPPARγ [4]; Cos-7 transient transfection, competition with 50 nM rosiglitazone): PPARγ antagonist
- Adipogenesis 3T3-L1 (result in words) (3T3-L1 preadipocytes): Negative
- Activation of GAL4-PPARγ (text) (GAL4-mPPARγ [1]): did not activate PPARγ
- AC50 (Human PPARγ; PPARγ direct binding, NA = not active, ref Filer et al. 2014, read-out: NVS Agonist AC50, 2014 Release): 24.9 µM
- AC50 (Human PPARγ; PPARγ direct binding, NA = not active, ref Knudsen et al. 2011, read-out: NVS Agonist AC50, 2011 Release): 43 µM
- PPARγ antagonists: IC10, NCGC (PPARγ [5]; AC10, ToxCast 2014 release): 0.15 µM
- AC50 (PPARγ [5]; PPARγ, NA = not active, read-out: NCGC Antag. AC50, 2014 Release): 3.2 µM
- IC50 (PPARγ [5]; read-out: PPARγ antagonists: IC50, NCGC, gain AC50, ToxCast 2014 release): 3.19 µM
- Concentration at which cytotoxicity (decreased β-galactosidase activity) was observed (COS7 cells): 100 µM
- AC50 (PPARγ [2]; PPARγ, NA = not active, ref Filer et al. 2014, read-out: ATG Agonist AC50, 2014 Release): 2 µM
- AC50 (PPARγ [2]; PPARγ, NA = not active, ref Knudsen et al. 2011, read-out: ATG Agonist AC50, 2011 Release): 3.7 µM
